The source of these data is patent publication US9034398B2, “Traditional Chinese drug comprising Danshen extracts and Sanqi extracts and use thereof” (TASLY Pharmaceutical Group Co., LTD., priority 2009, dated 2015).

In the test the test system is rat myocardial I/R model. The test is described as follows: Heart blood flow volume by laser Doppler perfusion imaging (LDPI). It is filed as in vivo. The conditions noted are these: for inhibitory effect on the decrease of the heart blood flow volume after I/R / heart blood flow volume regained compared to I/R group (LDPI images): 5 mg/kg BW/h intravenous drip; for inhibitory effect on the decrease of the heart blood flow volume after I/R: FIG. 5A; for heart blood flow volume regained compared to I/R group (LDPI images): at 30 min and 60 min after reperfusion, FIG. 4A. Here is the method: The rats were anesthetized by intramuscularly injecting 20 wt % urethane (1.25 g/kg) and fixed in the supine position. Neck skin was incised and anterior cervical muscles were separated to expose the trachea. Tracheal intubation was performed. Another end of the intubation was attached to a Small Animal Ventilator (ALC-V8, Shanghai Aoteshai Biology Science and Technology Limited Company, Shanghai, China) so as to carry out pressure breathing under the following conditions: a respiratory ratio of 1:1, a respiratory frequency of 75 times/min and a tidal volume of 12 mL/kg. The rectal temperature, measured with YSI REF 401 (Yellow Spring, Ohio, USA), was maintained at 37 37.5° C. by using a thermal blanket. The chest was sterilized and opened at the intercostal space between 2nd 4th ribs near the left and right sternal border to expose the heart. The 3⁄8 curved needle threaded with 3-0 suture was used to pass through the site at 1 2 mm below the juncture of the pulmonary artery cone and the left atrial appendage. The suture was ligated. A polyethylene tubule was placed between the silk suture and myocardial tissue, the silk suture was […] to cause ischemia. Ligature was released 30 min later to establish an I/R model. Danshensu+I/R group (DLA+I/R group): a Danshensu aqueous solution (in normal saline, 1.25 mg/ml) was administrated at a dosage of 5 mg/kg BW/h by intravenous drip 20 min before the experiment and continued until the end of the entire experiment. Notoginsenoside R1+I/R group (R1+I/R group): a Notoginsenoside R1 aqueous solution (in normal saline, 1.25 mg/ml) was administrated at a dosage of 5 mg/kg BW/h by intravenous drip 20 min before the experiment and continued until the end of the entire experiment. Danshensu:R1(4:1)+I/R group (DR(4:1)+I/R group): an aqueous solution of Danshensu and Notoginsenoside R1 at a weight ratio of 4:1, dissolved in normal saline (1.25 mg/ml, namely, in the solution, the concentration of Danshensu is 1 mg/ml and the concentration of Notoginsenoside R1 is 0.25 mg/ml), was administrated at a dosage of 5 mg/kg BW/h (namely, in the total dosage, the dosage of Danshensu is 4 mg/kg BW/h and the dosage of Notoginsenoside R1 is 1 mg/kg BW/h) by intravenous drip 20 min before the experiment and continued until the end of the entire experiment. Danshensu:R1 (1:1)+I/R group (DR(1:1)+IR group): an aqueous solution of Danshensu and Notoginsenoside R1 at a weight ratio of 1:1, dissolved in normal saline (1.25 mg/ml, namely, in the solution, the concentration of Danshensu is 0.625 mg/ml and the concentration of Notoginsenoside R1 is 0.625 mg/ml), was administrated at a dosage of 5 mg/kg BW/h (namely, in the total dosage, the dosage of Danshensu is 2.5 mg/kg BW/h and the dosage of Notoginsenoside R1 is 2.5 mg/kg BW/h) by intravenous drip 20 min before the experiment and continued until the end of the entire experiment. […] Blood flow volumes on the surface of heart before ischemia, 5 min, 30 min after ischemia, and 5 min, 30 min, 60 min after reperfusion had been recorded by a computer-aided laser Doppler perfusion imager (LDPI) (PeriScan PIM3, […], Sweden). Images were measured and the data were evaluated with […] software. Change rate of blood flow volume of the heart was calculated by taking the blood flow volume before I/R as a baseline.

For the compound `O=C(O)C(O)Cc1ccc(O)c(O)c1` (centres unmarked) [Danshensu, (3,4-dihydroxyphenyl)lactic acid], the “heart blood flow volume regained compared to I/R group (LDPI images)” value is “regained to some extent”. Moreover, the “inhibitory effect on the decrease of the heart blood flow volume after I/R” value (at 5 min after reperfusion) is listed as “significantly inhibitory effect”. For the same compound, the “amelioration of heart perfusion flow caused by I/R (summary)” value (rats, summary statement of the description) is recorded as “transiently ameliorate”.

Turning to `CC(C)=CCC[C@](C)(O[C@@H]1O[C@H](CO)[C@@H](O)[C@H](O)[C@H]1O)[C@H]1CC[C@]2(C)[C@@H]1[C@H](O)C[C@@H]1[C@@]3(C)CC[C@H](O)C(C)(C)[C@@H]3[C@@H](O[C@@H]3O[C@H](CO)[C@@H](O)[C@H](O)[C@H]3O[C@@H]3OC[C@@H](O)[C@H](O)[C@H]3O)C[C@]12C` [Notoginsenoside R1], the “heart blood flow volume regained compared to I/R group (LDPI images)” value was “regained to some extent”. For the same compound, the “inhibitory effect on the decrease of the heart blood flow volume after I/R” value (no time stated) was “has not been observed to have significantly inhibitory effect”.
